From patent US8980276B2, “Conjugates for the prevention or treatment of nicotine addiction” (Pfizer Inc, priority 2010, dated 2015)

Assays:
[1] = Dissolution of hapten-spacer conjugate for coupling; format: physicochemical; details: at 50 mg per ml
Method: a) The hapten-spacer conjugates were obtained as a yellow oil and stored at 2 to 8° C. until the day of use (for up to one week, longer storage was at −20° C.). […] The result was a yellow-brown suspension or solution.

anti-nicotine antibodies = assay: Competition ELISA to determine specificity of antibodies induced by anti-nicotine vaccines; format: binding, mouse; details: plasma of mice immunized with conjugates of examples 1 and 2; inhibitors diluted serially from 20,000 μM

inhibition of binding of anti-nicotine antibodies to nicotine-coated ELISA plates by added inhibitor (anti-nicotine antibodies) | Structure (SMILES) | solubility in deionised water [1]
– | CN1CCC[C@H]1c1cncc(CCCNC(=O)CCCCCCN)c1 [Preparation 33, 7-amino-N-(3-{5-[(2S)-1-methylpyrrolidin-2-yl]pyridin-3-yl}propyl) heptanamide] | did not dissolve fully in deionised water
no such effect is observed | c1cnc2cc3c(cc2n1)[C@@H]1CNC[C@H]3C1 [varenicline] | –
no such effect is observed | CN1C(=O)CC[C@H]1c1cccnc1 [cotinine] | –

Structure (SMILES) | inhibition of binding of anti-nicotine antibodies to nicotine-coated ELISA plates by added inhibitor (anti-nicotine antibodies) | solubility in deionised water [1]
CN1CCCC1c1cccnc1 (stereo not shown) [nicotine] | dose-dependent inhibition of binding | –
